# From patent EP4700019A1, “CRYSTAL FORM OF 1,5-DIHYDRO-2,4-BENZODIAZEPINE-3-ONE DERIVATIVE CITRATE, PREPARATION METHOD, AND USE THEREOF” (priority 2023, dated 2024)
# Structures can show the parent of a compound that is named as a salt. Where two headings read alike, the source gives them in different places.
# Columns and labels:
# [1] = type: physicochemical; conditions: Water, 25°C ± 2°C
# Description: An appropriate amount of the test substance was accurately weighed And placed under conditions of 25°C ± 2°C. Different solvents were added in suitable quantities, and the mixture was vigorously shaken for 30 seconds every 5 minutes, and the dissolution status was observed over a period of 30 minutes. […]
# [2] = Stability test (high humidity, light, high temperature, high temperature stress; HPLC); type: physicochemical
# [3] = as above; type: physicochemical; remark: listed apart in the source
# Description: These samples were stored under two different conditions: (1) relative humidity of 92.5% at 25°C, and (2) relative humidity of 75% ± 1% at room temperature; The samples were maintained under these conditions for 10 days. Sampling was performed on day 0 and day 10, followed by HPLC analysis.
# HPLC analysis was performed on day 0 and day 10.
# Samples were collected and subjected to HPLC analysis.
# [4] = Pharmacokinetics and bioavailability test in beagle dogs (Test Example 3); type: in vivo; conditions: for bioavailability: absolute oral bioavailability
# Description: Six healthy male beagle dogs were randomly divided into three groups, with two dogs in each group. […] Blood samples were collected from the forelimb vein of the dogs before and at various time points after administration. Plasma drug concentrations at different times were measured by LC-MS/MS. Pharmacokinetic parameters and the absolute oral bioavailability were calculated using WinNonlin7.0 software.
# [5] = Pharmacokinetics and bioavailability test in beagle dogs (Test Example 4); type: in vivo
# Description: Experimental method: Six healthy beagle dogs were randomly divided into two groups, with two dogs (one female and one male) in the first group, and four dogs (two females and two males) in the second group. […] Blood samples were collected from the forelimb veins of beagle dogs at various time points before and after administration. Plasma was obtained by centrifugation, and drug concentrations in plasma at different time points were measured using LC-MS/MS. Pharmacokinetic parameters and the absolute oral bioavailability were calculated using WinNonlin8.0 software.
# muscarinic receptors = conditions: no significant affinity; cited from earlier work
# [6] = target: dopamine receptors (including D2 receptors); conditions: no significant affinity; cited from earlier work
# adrenergic receptors = conditions: no significant affinity; cited from earlier work
# 5-HT2B receptors = 5-HT2B receptors (Homo sapiens, UniProt P41595); conditions: no significant affinity; cited from earlier work
# Sequence of 5-HT2B receptors (P41595 whole entry): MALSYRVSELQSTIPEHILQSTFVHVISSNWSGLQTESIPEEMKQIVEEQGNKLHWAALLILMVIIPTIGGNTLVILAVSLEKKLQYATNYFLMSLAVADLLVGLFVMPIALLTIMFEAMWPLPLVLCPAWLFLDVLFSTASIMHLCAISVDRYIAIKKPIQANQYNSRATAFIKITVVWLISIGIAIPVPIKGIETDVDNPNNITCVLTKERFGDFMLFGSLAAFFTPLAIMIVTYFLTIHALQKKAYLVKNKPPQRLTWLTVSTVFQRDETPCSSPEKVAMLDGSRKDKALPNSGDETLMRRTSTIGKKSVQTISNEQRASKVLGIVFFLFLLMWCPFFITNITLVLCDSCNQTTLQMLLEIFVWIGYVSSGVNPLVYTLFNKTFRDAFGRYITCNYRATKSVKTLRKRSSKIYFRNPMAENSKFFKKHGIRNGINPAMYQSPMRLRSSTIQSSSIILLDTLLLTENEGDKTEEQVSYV
# [7] = target: calcium channel receptors; conditions: no significant affinity; cited from earlier work
# [8] = High temperature of 40 °C for 10 days
# [9] = High temperature of 60 °C for 10 days
# [10] = High temperature of 105 °C for 1 day
# [11] = Light exposure for 10 days (5000 lx ± 500 lx; UV 90 µW/cm^2)
# [12] = 75% High humidity for 10 days, room temperature
# [13] = 92.5% High humidity for 10 days, 25°C
# [14] = PO 5 mg/kg (calculated as free base), capsules, male beagle dogs, plasma
# [15] = PO 10 mg/kg (calculated based on free base), capsule
# [16] = both sexes, dog, plasma, PO 10 mg/kg (calculated based on free base), capsule
# [17] = IV 0.69 mg/kg (calculated based on free base)
# [18] = dog, in vivo, IV 0.69 mg/kg (calculated based on free base)
compound,measurement,setting,value
"CN1CCC(N2Cc3cc(F)ccc3CN(Cc3ccc(OC4CC4)cc3)C2=O)CC1 [Base compound, 2-(4-cyclopropyloxybenzyl)-7-fluoro-4-(1-methylpiperidin-4-yl)-1,2,4-tetrahydro-3H-benzo[e][1,3]d iazepine-3-one]",Conclusion (solubility),[1],insoluble
same,HPLC determination results of the stability,[2]; [8],95.418%
same,HPLC determination results of the stability,[2]; [9],82.682%
same,HPLC determination results of the stability,[2]; [10],76.929%
same,HPLC determination results of the stability,[2]; [11],95.604%
same,HPLC determination results of the stability,[3]; [12],97.643%
same,HPLC determination results of the stability,[3]; [13],97.703%
same,HPLC determination results of the stability,[3]; original sample (0 day),98.018%
same,AUC0-last,[4]; [14],43.9 ng·h/mL
same,Cmax,[4]; [14],10.2 ng/mL
same,bioavailability,"[4]; PO 5 mg/kg (calculated as free base), capsules, male beagle dogs",2.4%
"CN1CCC(N2Cc3cc(F)ccc3CN(Cc3ccc(OC4CC4)cc3)C2=O)CC1.O=C(O)CC(O)(CC(=O)O)C(=O)O [Crystalline form II, 2-(4-cyclopropyloxybenzyl)-7-fluoro-4-(1-methylpiperidin-4-yl)-1,2,4,5-tetrahydro-3H-benzo[e] [1,3]diazepine-3-one citrate]",Conclusion (solubility),[1]; citrate,Very Slightly Soluble
same,AUC_%Extrap,[5]; [15],2.12%
same,MPT0-last,[5]; [15],6.62 h
same,Rsq_adj,[5]; [15],1.00
same,AUC(0-inf),[5]; [16],6400 ng·h/mL
same,AUC(0-t),[5]; [16],6280 ng·h/mL
same,Cmax,[5]; [16],754 ng/mL
same,Tmax,[5]; [16],2.25 h
same,half-life,[5]; [16],3.96 h
same,bioavailability,"[5]; both sexes, dog, plasma, PO 10 mg/kg (calculated based on free base), capsule, absolute oral bioavailability",94.8%
same,HPLC determination results of the stability,[2]; [8],99.756%
same,HPLC determination results of the stability,[2]; [9],99.723%
same,HPLC determination results of the stability,[2]; [10],99.709%
same,HPLC determination results of the stability,[2]; [11],99.762%
same,HPLC determination results of the stability,[3]; [12],99.749%
same,HPLC determination results of the stability,[3]; [13],99.735%
same,HPLC determination results of the stability,[3]; original sample (0 day),99.839%
same,bioavailability,"[4]; dog, plasma, PO 5 mg/kg (calculated as free base), capsules, male beagle dogs, read-out: bioavailability",7.4%
same,AUC(0-t),"[4]; dog, PO 5 mg/kg (calculated as free base), capsules, male beagle dogs, plasma",139 ng·h/mL
same,Cmax,"[4]; dog, PO 5 mg/kg (calculated as free base), capsules, male beagle dogs, plasma, read-out: Cmax",38.8 ng/mL
same,increase of bioavailability compared with the base compound,"[4]; oral solid dosage form, PO 5 mg/kg, beagle dogs",more than 3 times
CC(C)COc1ccc(CNC(=O)N(Cc2ccc(F)cc2)C2CCN(C)CC2)cc1 [Pimavanserin],Ki,muscarinic receptors,> 300 nM
same,Ki,[6],> 300 nM
same,Ki,adrenergic receptors,> 300 nM
same,Ki,5-HT2B receptors,> 300 nM
same,Ki,[7],> 300 nM
"CN1CCC(N2Cc3cc(F)ccc3CN(Cc3ccc(OC4CC4)cc3)C2=O)CC1 [citrate, 2-(4-cyclopropyloxybenzyl)-7-fluoro-4-(1-methylpiperidin-4-yl)-1,2,4-tetrahydro-3H-benzo[e][1 ,3]diazepine-3-one citrate]",AUC_%Extrap,[5]; [17],4.20%
same,MPT0-last,[5]; [17],4.41 h
same,Rsq_adj,[5]; [17],1.00
same,AUC(0-inf),[5]; [18],466 ng·h/mL
same,AUC(0-t),[5]; [18],447 ng·h/mL
same,Cmax,[5]; [18],220 ng/mL
same,Tmax,[5]; [18],0.08 h
same,clearance,[5]; [18],24.7 mL/min/kg
same,half-life,[5]; [18],2.2 h
same,Vd,"[5]; dog, in vivo, IV 0.69 mg/kg (calculated based on free base), read-out: Vdss",2.5 L/kg
same,AUC(0-t),"[4]; dog, in vivo, IV 1 mg/kg, male beagle dogs, plasma",348 ng·h/mL
same,Cmax,"[4]; dog, in vivo, IV 1 mg/kg, male beagle dogs, plasma, read-out: Cmax",138 ng/mL
